Test results: publication PMC5013046, “A Sex Pheromone Receptor in the Hessian Fly Mayetiola destructor (Diptera, Cecidomyiidae)” (Frontiers in Cellular Neuroscience, 2016)

Biological target: T1, MdesOR115 (with MdesOrco; HEK293/TMO/MdesOR115) (Mayetiola destructor, UniProt A0A1D8GZG1)
T1 construct: with Odorant receptor coreceptor
T1 sequence (A0A1D8GZG1 1-412): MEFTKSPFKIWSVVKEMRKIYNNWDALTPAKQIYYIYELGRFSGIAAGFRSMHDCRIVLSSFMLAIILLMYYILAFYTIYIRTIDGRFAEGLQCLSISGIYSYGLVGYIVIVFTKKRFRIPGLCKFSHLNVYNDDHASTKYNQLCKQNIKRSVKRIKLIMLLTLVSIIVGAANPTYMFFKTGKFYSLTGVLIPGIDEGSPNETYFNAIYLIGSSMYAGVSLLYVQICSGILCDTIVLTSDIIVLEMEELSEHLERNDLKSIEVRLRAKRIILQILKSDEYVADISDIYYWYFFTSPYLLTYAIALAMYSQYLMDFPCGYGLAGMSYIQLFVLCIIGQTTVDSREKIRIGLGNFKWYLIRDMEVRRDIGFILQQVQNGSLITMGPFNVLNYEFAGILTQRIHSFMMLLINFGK
T1 sequence (A0A1D8GZG0 1-466 partner): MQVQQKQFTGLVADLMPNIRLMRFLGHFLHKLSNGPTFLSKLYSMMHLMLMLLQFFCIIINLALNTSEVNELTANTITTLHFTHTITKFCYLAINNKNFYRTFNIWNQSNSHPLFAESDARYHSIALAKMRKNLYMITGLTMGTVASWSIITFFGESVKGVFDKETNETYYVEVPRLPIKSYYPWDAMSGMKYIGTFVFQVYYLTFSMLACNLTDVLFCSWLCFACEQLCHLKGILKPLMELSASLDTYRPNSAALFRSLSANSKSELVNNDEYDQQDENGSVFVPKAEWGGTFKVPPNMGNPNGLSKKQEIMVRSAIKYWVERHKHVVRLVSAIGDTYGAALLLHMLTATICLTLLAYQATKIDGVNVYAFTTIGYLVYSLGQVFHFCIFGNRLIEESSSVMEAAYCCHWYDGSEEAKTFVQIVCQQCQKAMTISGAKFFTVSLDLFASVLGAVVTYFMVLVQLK
Assay: fluorescent calcium assay, HEK293 cells, dose-response
Format: cell-based

EC50: 2020 to 3690 nM
SMILES: CC/C=C/C=C/CCCCC[C@H](C)OC(C)=O [2S-8E,10E-13:OAc, (2S,8E,10E)-8,10-tridecadien-2-yl acetate]
